In US20150010474A1, “Compounds And Methods For Selective Imaging And/Or Ablation” (Auckland Uniservices Limited, priority 2011, published 2015):

Experiments:
wild-type HCT-116 cells = assay: Flow cytometry of metabolism and binding (EF5 antibody); format: cell-based, human; settings: for Metabolism and binding by FACS, wild-type HCT-116 cells (FIG. 3): 20 μM, 2 hours, oxic conditions (21% O2, 5% CO2)
Experimental: FIG. 3 illustrates the results of flow cytometry analysis of HCT-116 cells stably expressing E. coli NfsA relative to HCT-116 wild-type cells after in vitro exposure to 20 μM of compounds 15, 93 and 67 for 2 hours. 1×10^6 cells were incubated with test compounds under oxic conditions. Samples were fixed and stained with EF5 antibody Alexa 488 ELK3.51 at 100 μg/ml. Samples were then analysed on a Becton Dickinson FACscan flow cytometer.
(§1) FIG. 4 illustrates the results of a second independent flow cytometry analysis of compound 15 and 93 metabolism and binding in wild-type HCT-116 cells, HCT-116 cells stably over-expressing cytochrome P450 reductase (CYPOR), a human one-electron reductase known to metabolise nitroheterocyclic and nitroaromatic compounds, or HCT-116 cells stably expressing the bacterial nitroreductase E. coli NfsA. 1×10^6HCT-116 cells were seeded in 6 well plates underaerobic conditions (21% O2, 5% CO2). After 2 h incubation, drug free control (wild-type HCT-116, foreground), 20 μM (wild-type HCT-116, second plot), 100 μM (wild-type HCT-116, third plot), 20 μM (HCT-116-CYPOR, forth plot), 100 μM (HCT-116-CYPOR, fifth plot) or 20 μM (HCT-116-NfsA, sixth plot) of compound 15 or 93 was added. After 2 h incubation cells were harvested and fixed with paraformaldehyde before being incubated overnight with 100 μl of 75 μg/ml EF5 CY5 conjugated antibody. Samples were then analysed on a Becton Dickinson FACscan flow cytometer.
(§2) FIG. 6 illustrates the results of flow cytometry analysis of compound 15 and 93 metabolism and binding in wild-type HCT-116 cells and HCT-116 cells stably over-expressing cytochrome P450 reductase (CYPOR), a human one-electron reductase known to metabolise nitroheterocyclic and nitroaromatic compounds. 1×10^6 HCT-116 cells were seeded in 6 well plates underanoxic conditions. After 2 h incubation, drug free control (wild-type HCT-116, foreground), 20 μM (wild-type HCT-116, second plot), 100 μM (wild-type HCT-116, third plot), 20 μM (HCT-116-CYPOR, forth plot) or 100 μM (HCT-116-CYPOR, fifth plot) of compound 15 or 93 was added. After 2 h incubation cells were harvested and fixed with paraformaldehyde before being incubated overnight with 100 μl of 75 μg/ml EF5 CY5 conjugated antibody. Samples were then analysed on a Becton Dickinson FACscan flow cytometer.

[1] = tested on: bacterial nitroreductase over-expressing E. coli strains; assay: IC50 (turbidity) in selected NTR over-expressing library strains; format: cell-based, Escherichia coli; settings: 4 h post-challenge, serial dilution
Experimental: FIG. 2.3 illustrates the IC50 of compound 67 for selected NTR library strains (i.e. the concentration of compound 67 that yielded only 50% turbidity relative to an unchallenged control 4 h post-challenge, in replicate cultures across a serial dilution of compound 67). The strains selected were all those observed to have SOS activity above the empty plasmid control (“Empty”) in response to challenge with compound 67 as illustrated in FIG. 2(B), plus NfsB (E.c) as a negative control. For the IC50 assays, 100 μl of overnight cultures were used to inoculate 2 ml M63 minimal medium supplemented with 100 μg·ml^−1 ampicillin and 50 μM IPTG and incubated at 30° C., 200 rpm for 3.5 h. 40 μL aliquots from each culture were then added to individual wells of a sterile 384 well plate, each already containing 40 μl of ampicillin and IPTG-supplemented M63 medium and a dilution series of compound 67 as indicated on the X-axis of panel A. A. Raw growth curves. Each NTR over-expression strain was tested at least in duplicate (independent replicates), with the exception of NfsB (E.c), which was only measured once. Culture turbidity was monitored by optical density at 600 nm 4 h post-challenge. B. IC50 values calculated by comparison of the challenged cells with the unchallenged control for each strain, after subtracting the initial absorbance values (t=0 h), using SigmaPlot 10.0 (Systat Software Inc., Richmond, Calif.). Errors are 1 standard error of the mean (SEM).
(§3) FIG. 2.4 illustrates the IC50 of compound 93 for selected NTR library strains. […] B. IC50 values calculated by comparison of the challenged cells with the unchallenged control for each strain, after subtracting the initial absorbance values (t=0 h), using SigmaPlot 10.0 (Systat Software Inc., Richmond, Calif.). […]
as §3, with “2.5” for “2.4”, “97” for “93”

[2] = tested on: HCT-116 cells stably over-expressing cytochrome P450 reductase (CYPOR); assay: Flow cytometry of metabolism and binding (EF5 antibody); format: cell-based, human; settings: 2 h
Experimental: as §1
FIG. 5 illustrates the results of flow cytometry analysis of HCT-116 cells stably over-expressing cytochrome P450 reductase (CYPOR), a human one-electron reductase known to metabolise nitroheterocyclic and nitroaromatic compounds. 1×10^6HCT-116-CYPOR cells were seeded in 6 well plates in aerobic, anoxic and 0.2% oxygen conditions designed to replicate the lower limit of pathological hypoxia observed in human tumours. After 2 h incubation, drug free control (foreground), 20 μM (middle) or 100 μM (background) of compound 15 or 67 was added. After 2 h incubation cells were harvested and fixed with paraformaldehyde before being incubated overnight with 100 μl of 75 μg/ml EF5 CY5 conjugated antibody. Samples were then analysed on a Becton Dickinson FAC scan flow cytometer.
as §2

Row | SMILES | Metabolism and binding by FACS, wild-type HCT-116 cells (FIG. 3) (wild-type HCT-116 cells) | Inhibition of bacterial cell growth in NTR over-expressing strains compared to controls [1] | Metabolism and binding by FACS, HCT-116-CYPOR cells, 0.2% oxygen (FIG. 5) ([2]; 20 μM or 100 μM, 0.2% oxygen) | Metabolism and binding by FACS, HCT-116-CYPOR cells, aerobic (FIG. 5) ([2]; 20 μM or 100 μM, aerobic) | Metabolism and binding by FACS, wild-type HCT-116 cells (FIG. 4) (wild-type HCT-116 cells; 20 μM and 100 μM, 2 h, aerobic conditions) | Metabolism and binding by FACS, wild-type HCT-116 cells, anoxia (FIG. 6) (wild-type HCT-116 cells; 20 μM and 100 μM, 2 h, anoxic conditions) | Metabolism and binding by FACS, HCT-116-CYPOR cells (FIG. 4) ([2]; 20 μM and 100 μM, aerobic conditions) | Metabolism and binding by FACS, HCT-116-CYPOR cells, anoxia (FIG. 6) ([2]; 20 μM and 100 μM, anoxic conditions)
1 | Cc1ncc([N+](=O)[O-])n1CC(=O)NCC(F)(F)C(F)(F)F [Compound 67, 2-(2-methyl-5-nitro-1H-imidazol-1-yl)-N-(2,2,3,3,3-pentafluoropropyl)acetamide] | minimal metabolism and binding | Inhibition of bacterial cell growth was selectively observed | negligible metabolism and binding | negligible metabolism and binding |  |  |  | 
2 | O=C(Cn1cnc([N+](=O)[O-])c1)NCC(F)(F)C(F)(F)F [Compound 93, 2-(4-nitro-1H-imidazol-1-yl)-N-(2,2,3,3,3-pentafluoropropyl)acetamide] | minimal metabolism and binding | Inhibition of bacterial cell growth was selectively observed |  |  | minimal metabolism and binding | negligible metabolism and binding | minimal metabolism and binding | negligible metabolism and binding
